Counter-ions that a name gives are not always drawn. Like-named read-outs stand apart in the source and are kept apart here.
What was measured:
[1] = test system: promyelocytic cell line HL-60; assay: Inhibition of cell proliferation, tritiated thymidine incorporation, cells (ii); format: cell-based; conditions: for inhibition at 500 µM: Homo sapiens
Procedure: (§1) The compound of the invention prepared in Example I gave the results indicated in paragraphs (a), (b) and (c), below, when tested on: (i) leukemic cells from six myeloid leukemic patients, and (ii) promyelocytic cell line HL-60.
(b) Inhibition of cell proliferation. This was evaluated by inhibition of tritiated thymidine incorporation. The results in the following table are self-explanatory:
In a further experiment, cells (ii) were incubated with the compound of Example I or with sodium butyrate. After a period of time as specified in the following table, the agents were removed by washing the cells, and thymidine incorporation was measured 15 hours after the end of incubation.

[2] = test system: leukemic cells from six myeloid leukemic patients and promyelocytic cell line HL-60 (which one is not stated); assay: Induction of cytodifferentiation, reduction of nitro blue tetrazolium (NBT); format: cell-based; conditions: 0.15 mM
Procedure: (c) Induction of cytodifferentiation. This was evaluated by reduction of nitro blue tetrazolium (NBT), which is indicative of functional maturity of leucocytes.

B16 Melanoma [3] = assay: In vivo efficacy, 3B132 subcutaneously implanted B16 Melanoma; conditions: 125 mg./kg./mouse, i.p.; 1-6 days, daily
Procedure: (§2) Moreover, the in vivo efficacy of the compound of the invention prepared in Example I was tested according to protocols adopted from the "Developmental Therapeutics Program, Division of Cancer Treatment, National Cancer Institute", NIH Publication 84-2635, using the following animal models: (1) 3B131 Intraperitoneally (i.p.) implanted B16 Melanoma; (2) 3B132 Subcutaneously (s.c.) implanted B16 Melanoma: and (3) 3LL32 Subcutaneously (s.c.) implanted Lewis Lung Carcinoma. Results according to the following table were obtained.

B16 Melanoma [4] = assay: In vivo efficacy, 3B131 intraperitoneally implanted B16 Melanoma; parameters: species or system mouse; conditions: i.p., 1-9 days, daily
mouse spleen cells = assay: Colony stimulating factors (CSF) production by murine splenocytes, CFU-GM from BALB/c mouse bone marrow; format: cell-based; conditions: for CSF production, %: ConA = 100
Procedure: (§4) CSF activity was assayed by the ability of the supernatants from these cultures to support development on semisolid agar of CFU-GM (colony forming units--granulocytes and macrophages) from bone marrow cells of BALB/c mice.

[5] = test system: leukemic cells from six myeloid leukemic patients; assay: Cytotoxicity, viability of cells 60 hours after exposure, Trypan Blue exclusion, cells (i); format: cell-based; conditions: Homo sapiens, read-out: Concentration which resulted in 50% inhibition (LD50), viability
Procedure: as §1
(§3) (a) Cytotoxicity. The viability of the cells 60 hours after exposure was determined by Trypan Blue exclusion.

human lymphocytes = assay: Colony stimulating factors (CSF) production by human lymphocytes, CFU-GM from BALB/c mouse bone marrow; format: cell-based; conditions: for CSF production, # CFU-GM / CSF production, %: 72 hours incubation; for CSF production, %: PHA = 100
Procedure: as §4

[6] = test system: promyelocytic cell line HL-60; assay: Cytotoxicity, viability of cells 60 hours after exposure, Trypan Blue exclusion, cells (ii); format: cell-based; conditions: Homo sapiens, read-out: Concentration which resulted in 50% inhibition (LD50), viability
Procedure: as §1, §3

Lewis Lung Carcinoma = assay: In vivo efficacy, 3LL32 subcutaneously implanted Lewis Lung Carcinoma; parameters: species or system mouse; conditions: i.p.
Procedure: as §2

[7] = test system: leukemic cells from six myeloid leukemic patients; assay: Inhibition of cell proliferation, tritiated thymidine incorporation, cells (i); format: cell-based, human
Procedure: as §1
(b) Inhibition of cell proliferation. This was evaluated by inhibition of tritiated thymidine incorporation. The results in the following table are self-explanatory: […]

[8] = Therapeutic index (LD50/ED50), standard procedures; conditions: in vivo
[9] = cited from earlier work
[10] = test system: acute myelogenous leukemia; conditions: human, in vivo
[11] = in vivo; cited from earlier work
[12] = test system: colony forming units, granulocytes and macrophages (CFU-GM); conditions: CFU-GM in soft agar; normal bone marrow and peripheral blood of leukemic patients; unpublished work; cited from earlier work
variety of tumor cells = conditions: induction of morphological and biochemical changes; cited from earlier work
[13] = test system: leukemic cells isolated from myelogenous leukemic patients
[14] = cited from earlier work; remark: listed apart in the source
[15] = test system: refractory acute myelogenous leukemia; conditions: 0.5 g./kg./day; cited from earlier work
neuroblastoma = conditions: doses of up to 10 g./day; cited from earlier work
[16] = Activity of hydrolysis product under conditions in which the parent compound was active; conditions: conditions in which the parent compound (Example I) was active
Description: It is postulated that the butyrate esters provided by the invention undergo intracellular hydrolysis to butyric acid; the residual fragments of the hydrolysis would be non-toxic. […] An alternative metabolic route may involve (where appropriate) the oxidation of butyrates to hydroxy-butyrates and/or oxo-butyrates.

[17] = Experiment 1, 20 μM, 24 hours incubation

CCCC(=O)[O-].[Na+] [sodium butyrate, reference compound]
inhibition at 500 µM ([1]; HL-60, read-out: % inhibition of tritiated thymidine incorporation, 0.5 mM, incubation 0.5 hours, washed, measured 15 hours after end of incubation): 0% | inhibition at 500 µM ([1]; HL-60, read-out: % inhibition of tritiated thymidine incorporation, 0.5 mM, incubation 3.0 hours, washed, measured 15 hours after end of incubation): 0% | inhibition at 500 µM ([1]; HL-60, read-out: % inhibition of tritiated thymidine incorporation, 0.5 mM, incubation 16.0 hours, washed, measured 15 hours after end of incubation): 0% | inhibition at 500 µM ([1]; HL-60, read-out: % inhibition of tritiated thymidine incorporation, 0.5 mM, incubation 24.0 hours, washed, measured 15 hours after end of incubation): 22% | inhibition at 500 µM ([1]; HL-60, read-out: % inhibition of tritiated thymidine incorporation, 0.5 mM, incubation 48.0 hours, washed, measured 15 hours after end of incubation): 50% | inhibition at 500 µM ([1]; HL-60, read-out: % inhibition of tritiated thymidine incorporation, 0.5 mM, incubation 62.0 hours, washed, measured 15 hours after end of incubation): 94% | NBT reduction (% of positive cells) ([2]; incubation 24 hours): 11 % of positive cells | NBT reduction (% of positive cells) ([2]; incubation 48 hours): 29 % of positive cells | NBT reduction (% of positive cells) ([2]; incubation 72 hours): 48 % of positive cells | NBT reduction (% of positive cells) ([2]; incubation 96 hours): 66 % of positive cells

CCCC(=O)OCOC(=O)C(C)(C)C [Example I, Pivaloyloxymethyl butyrate]
ILS (increased life span compared to untreated animals) (B16 Melanoma [3]): 150% | ILS (increased life span compared to untreated animals) (B16 Melanoma [4]; 250 mg./kg./mouse): 154% | CSF production, # CFU-GM (mouse spleen cells; [17]): 11 # CFU-GM | CSF production, % (mouse spleen cells; [17]): 10% | CSF production, % (mouse spleen cells; Experiment 1, 50 μM, 24 hours incubation): 0% | CSF production (in words) (mouse spleen cells; murine lymphocytes): stimulates CSF production | IC50 [5]: 150 µM | inhibition at 500 µM ([1]; HL-60, 0.5 mM, incubation 0.5 hours, washed, measured 15 hours after end of incubation, read-out: % inhibition of tritiated thymidine incorporation): 52% | inhibition at 500 µM ([1]; HL-60, 0.5 mM, incubation 3.0 hours, washed, measured 15 hours after end of incubation, read-out: % inhibition of tritiated thymidine incorporation): 92% | inhibition at 500 µM ([1]; HL-60, 0.5 mM, incubation 16.0 hours, washed, measured 15 hours after end of incubation, read-out: % inhibition of tritiated thymidine incorporation): 99% | inhibition at 500 µM ([1]; HL-60, 0.5 mM, incubation 24.0 hours, washed, measured 15 hours after end of incubation, read-out: % inhibition of tritiated thymidine incorporation): 99% | inhibition at 500 µM ([1]; HL-60, 0.5 mM, incubation 48.0 hours, washed, measured 15 hours after end of incubation, read-out: % inhibition of tritiated thymidine incorporation): 99% | inhibition at 500 µM ([1]; HL-60, 0.5 mM, incubation 62.0 hours, washed, measured 15 hours after end of incubation, read-out: % inhibition of tritiated thymidine incorporation): 99% | inhibition at 500 µM ([1]; HL-60, 0.5 h, cells (ii), 0.5 mM, 0.5 hr. exposure, read-out: % inhibition of tritiated thymidine incorporation): 52% | inhibition at 500 µM ([1]; HL-60, 15 h, cells (ii), 0.5 mM, 15 hrs. exposure, read-out: % inhibition of tritiated thymidine incorporation): 99% | CSF production, # CFU-GM (human lymphocytes; Experiment 1, 20 μM): 10 # CFU-GM | CSF production, % (human lymphocytes; Experiment 1, 20 μM): 33% | CSF production, # CFU-GM (human lymphocytes; Experiment 1, 50 μM): 3 # CFU-GM | CSF production, % (human lymphocytes; Experiment 1, 50 μM): 10% | CSF production, # CFU-GM (human lymphocytes; Experiment 2, 20 μM): 43 # CFU-GM | CSF production, % (human lymphocytes; Experiment 2, 20 μM): 105% | CSF production, # CFU-GM (human lymphocytes; Experiment 2, 50 μM): 16 # CFU-GM | CSF production, % (human lymphocytes; Experiment 2, 50 μM): 39% | CSF production (in words) (human lymphocytes; human lymphocytes): stimulates CSF production | NBT reduction (% of positive cells) ([2]; incubation 24 hours): 24 % of positive cells | NBT reduction (% of positive cells) ([2]; incubation 48 hours): 49 % of positive cells | NBT reduction (% of positive cells) ([2]; incubation 72 hours): 66 % of positive cells | NBT reduction (% of positive cells) ([2]; incubation 96 hours): 77 % of positive cells | IC50 [6]: 100 µM | ILS (increased life span compared to untreated animals) (Lewis Lung Carcinoma; 125 mg./kg./mouse, 1-6 days, daily): 152% | ILS (increased life span compared to untreated animals) (Lewis Lung Carcinoma; 125 mg./kg./mouse, 1-18 days, every odd day): 186% | inhibition at 100 µM ([7]; Homo sapiens, 0.1 mM, 15 hrs. exposure): 88% | inhibition at 200 µM ([7]; Homo sapiens, 0.2 mM, 15 hrs. exposure): 99% | selectivity ratio [8]: 15 to 20

O=P1(N(CCCl)CCCl)NCCCO1 (stereo not shown) [cytoxan, reference compound]
ILS (increased life span compared to untreated animals) (Lewis Lung Carcinoma; 100 mg./kg./mouse, day 1 only): 152%

N.N.[Cl][Pt][Cl] [cisplatin, reference compound]
ILS (increased life span compared to untreated animals) (B16 Melanoma [4]; 1.5 mg./kg./mouse): 164%

CCCC(=O)O [butyric acid/salts, butyric acid]
induction period ([9]; in vitro): 48 h | induction period ([9]; in vivo): 96 to 120 h | adverse reaction (in words) [10]: no adverse reaction | clearance (in words) [11]: high clearance | metabolization (in words) [11]: rapid metabolization | selectivity (in words) [12]: selectivity of butyric acid/salts was demonstrated | anti-tumor activity (in words) (variety of tumor cells): anti-tumor activity | cytotoxic and cytodifferentiating potency (in words) [13]: the most potent cytotoxic and cytodifferentiating agent | toxicity (in words) ([14]; high dosages): no toxicity | fluid overload and alkalosis (in words) ([14]; human, in vivo): fluid overload and mild alkalosis may occur | IC50 [5]: 1000 µM | inhibition of tritiated thymidine incorporation (in words) ([1]; cells (ii), 24 hours, up to 1 mM): no inhibition | IC50 [6]: 400 µM | remission (in words) [15]: partial and temporary remission | toxic effects (in words) [15]: without detectable toxic effects | toxicity (in words) (neuroblastoma): no clinically detectable toxicity | inhibition of tritiated thymidine incorporation (in words) ([7]; 24 hours, up to 2 mM): no inhibition

CC(C)(C)C(=O)O [pivalic acid]
activity (in words) [16]: shows no activity
